Test results: patent publication US11435353B2, “Method of evaluating drug resistance and treatment effect” (priority 2018, dated 2022)
Entries after “also recorded” stand apart in the source; their conditions may differ. Read-outs that look alike come from different tables or passages of the source.

Columns and labels:
[1] = test system: ER+ breast cancer cell (ZR-75-1); test: MTT assay of cytotoxic effects in ZR-75-1 cells; settings: short-term treatment, FIG. 5C/5D
Protocol: (§6) Cell viability was analyzed by MTT (3, [4,5-dimethylthiazol-2-yl-]diphenyltetrazolium bromide, 5 mg/ml). Cells were seeding in 96-well plates and incubated overnight, and then changed into the fresh medium containing indicated concentrations of tamoxifen for 72 h. 50 μl of MTT was added to each well and incubated for 2 h, and the purple formazan crystals were dissolved in DMSO. The absorbance was measured by a microplate reader at a wavelength of 570 nm.

[2] = test system: ER+ breast cancer cell (ZR-75-1)
Protocol: as §6

[3] = test system: TRBP; test: Western blot of TRBP expression after tamoxifen or 4OHT treatment; format: cell-based; settings: 48 hours
Protocol: (§1) On the other hands, similar experiments above are also performed to identify the upstream modulator of TRBP.
(§2) Whole cell extracts were lysed in RIPA buffer and collected to fractionate by SDSPAGE, and then transferred onto PVDF membranes according to the manufacture's protocols (Bio-Rad). After blocking with 5% nonfat milk in TBST for 60 min, membranes were washed and incubated with primary antibodies at 4° C. overnight. Membranes were washed three times for 10 min and incubated with secondary antibodies for 60 min. Protein expressions were visualized by ECL system according to the manufacture's protocols.

[4] = test system: p-AKT; test: Western blot of p-AKT; format: cell-based; settings: left of FIG. 8K
Protocol: as §1, §2

[5] = test system: SOX2 protein; test: Western blot of SOX2 protein expression; format: cell-based
Protocol: In order to identify the downstream modulator of TRBP, the tamoxifen-sensitive cells (MCF-7) were treated with 2 μM tamoxifen for 48 hours, and then RNA of the tamoxifen-sensitive cell (MCF-7) was isolated to analyze the mRNA expression of stem cell markers by using a reverse-transcription PCR (qRT-PCR), with the aforementioned experiment being repeated at least three times, and with ATP5E being used as a positive control for tamoxifen treatment (*P<0.05) by t-test. Then, the tamoxifen-sensitive cells (MCF-7) were further collected to analyze protein expression by using a western blot. Accordingly, we determined the expression of several key factors that have been reported to modulate self-renewal and drug resistance of cancer cells, including SOX2, Nanog, OCT4, Lin28A, CCND1.
as §1, §2

[6] = test system: SOX2 protein; test: SOX2 protein stability; format: cell-based
[7] = test system: tamoxifen-resistant cell (MCF-7/TR)
Protocol: as §6

[8] = test system: Merlin; test: Western blot of Merlin expression after tamoxifen treatment; format: cell-based; settings: increasing concentrations, 48 hours
Protocol: as §2

[9] = test system: TRBP mRNA; test: qRT-PCR of TRBP mRNA level; format: cell-based; settings: FIG. 7A
Protocol: (§3) Then, in order to investigate changes in TRBP protein stability, the […] of TRBP was analyzed by further treating the tamoxifen-resistant cell (MCF-7/TR) and the tamoxifen-resistant cell (MCF-7/TR1) with 50 μg/ml cycloheximide (CHX) to block de novo protein synthesis, followed by harvesting the tamoxifen-resistant cell (MCF-7/TR) and the tamoxifen-resistant cell (MCF-7/TR1) at an indicated time point to analyze the expression of TRBP in the tamoxifen-resistant cell (MCF-7/TR) and the tamoxifen-resistant cell through another western blot, wherein the degradation rates were plotted for the average±SEM of at least three independent experiments and analyzed by two-way ANOVA (*P≤0.05 and **P≤0.01).
(§4) Total RNA was isolated by using Trizol reagent according to the manufacturer's instructions. 200 ng of RNA was reverse transcribed to complementary DNA (cDNA) by using a reverse transcriptase enzyme, a random primer, dNTPs and an RNase inhibitor. Real-time PCR was performed by Applied Biosystem Step One Real-time PCR system (Applied Biosystems) according to manufacturer's protocols. Samples run in three independent experiments and GAPDH or α-tubulin were used as an internal control to normalize the target genes.

[10] = test system: SOX2 mRNA; test: qRT-PCR of stem cell marker mRNA (SOX2); format: cell-based; settings: MCF-7 cells, 2 μM, 48 hours, FIG. 8A/8F
Protocol: (§5) Then, the tamoxifen-sensitive cells (MCF-7) were further collected to analyze protein expression by using a western blot.
After that, RNA was isolated from the tamoxifen-sensitive cell (MCF-7) to analyze the mRNA expression of SOX2 by using a reverse-transcription PCR (qRT-PCR).
as §4

[11] = test system: cyclin D1; test: qRT-PCR and western blot of cyclin D1; format: cell-based; settings: MCF-7 cells, 2 μM, 48 hours, FIG. 8A/8B
Protocol: as §5, §2, §4

[12] = test system: TRBP protein; test: Cycloheximide chase, TRBP protein stability by western blot; format: cell-based
Protocol: as §3, §2

Molecule	cytotoxic effects (MTT) [1]	cytotoxic effects (MTT) [2]	TRBP expression ([3]; ER- Hs578T cells, FIG. 5E)	TRBP expression ([3]; ER- MDA-MB-231 cells, FIG. 5E)	TRBP expression ([3]; ER- SKBR3 cells, FIG. 5E)	TRBP expression ([3]; MCF-7/TR cells, increasing concentrations, FIG. 5A/5B)	p-AKT level after tamoxifen treatment [4]	expression of SOX2 protein ([5]; MCF-7 cells, 2 μM, 48 hours, FIG. 8B)	SOX2 level after tamoxifen treatment ([5]; right of FIG. 8K)	SOX2 protein degradation ([6]; tamoxifen-treated vs untreated MCF-7, FIG. 8G)	SOX2 protein degradation ([6]; tamoxifen-treated vs untreated MCF-7/TR, FIG. 8H)	cytotoxic effects (MTT) [7]	expression of Merlin ([8]; MCF-7 cells, FIG. 7D)	expression of Merlin ([8]; ZR-75-1 cells, FIG. 7E)	TRBP mRNA level ([9]; MCF-7/TR1 cells)	TRBP mRNA level ([9]; MCF-7/TR cells pretreated with 2 μM tamoxifen for 48 hours)	expression of SOX2 mRNA [10]	cyclin D1 expression [11]	degradation of TRBP protein ([12]; tamoxifen-treated vs untreated MCF-7, 50 μg/ml cycloheximide, FIG. 7B)	degradation of TRBP protein ([12]; tamoxifen-treated vs untreated MCF-7/TR1, 50 μg/ml cycloheximide, FIG. 7C)
4-hydroxytamoxifen	noncytotoxic	–	–	–	–	–	–	–	–	–	–	–	–	–	–	–	–	–	–	–
CC/C(=C(\c1ccccc1)c1ccc(OCCN(C)C)cc1)c1ccccc1 [tamoxifen]	–	noncytotoxic	no significant induction of TRBP	no significant induction of TRBP	no significant induction of TRBP	induced the TRBP expression in a dose-dependent manner	elevated-AKT level	upregulated expression of SOX2 protein	elevated-SOX2 level	degraded more slowly	degraded more slowly	without inducing any significant cytotoxic effects	suppressed in a dose-dependent manner	suppressed in a dose-dependent manner	not significantly changed	not significantly changed	upregulated; also recorded: enhanced SOX2 expression	reduction of cyclin D1	significant prolonged degradation of TRBP protein	significant prolonged degradation of TRBP protein
